Source: the supplement of paper PMC10307832

Experiments:
Assay in all cases: relative viability (nuclei count vs DMSO), 5 days (fraction); higher = more cells survive
AZD5582 + Bortezomib = compound: C[C@@H](C(=O)N[C@@H](C1CCCCC1)C(=O)N2CCC[C@H]2C(=O)N[C@@H]3[C@@H](CC4=CC=CC=C34)OCC#CC#CCO[C@@H]5CC6=CC=CC=C6[C@@H]5NC(=O)[C@@H]7CCCN7C(=O)[C@H](C8CCCCC8)NC(=O)[C@H](C)NC)NC [AZD5582] + CC(C)C[C@H](NC(=O)[C@H](Cc1ccccc1)NC(=O)c1cnccn1)B(O)O [Bortezomib] (partner 0.002 µM)
Summary of the method: (§1)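 The day after seeding in 1536-well plates, lung cancer cell lines were treated by pin tool with a single drug, or with a fixed anchor-drug dose together with five library-drug doses (not always all listed) in √10 steps. After 5 days, a combined fix-and-stain solution (final 0.05% Triton X-100, 1% formaldehyde, 1 ug/ml Hoechst) was added. Nuclei counted on 4× images gave relative viability as treated counts over vehicle counts, reported as the median of duplicate plates.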

AZD5582 + Vorinostat = compound: C[C@@H](C(=O)N[C@@H](C1CCCCC1)C(=O)N2CCC[C@H]2C(=O)N[C@@H]3[C@@H](CC4=CC=CC=C34)OCC#CC#CCO[C@@H]5CC6=CC=CC=C6[C@@H]5NC(=O)[C@@H]7CCCN7C(=O)[C@H](C8CCCCC8)NC(=O)[C@H](C)NC)NC [AZD5582] + O=C(CCCCCCC(=O)Nc1ccccc1)NO [Vorinostat] (partner 1 µM)
Summary of the method: as §1

[1] = compound: Cn1nnc2c(C(N)=O)ncn2c1=O [Temozolomide] + N=C(N)NC(=N)NCCc1ccccc1 [Phenformin] (partner 250 µM)
Summary of the method: as §1

Temozolomide + AZD7762 = compound: Cn1nnc2c(C(N)=O)ncn2c1=O [Temozolomide] + NC(=O)Nc1cc(-c2cccc(F)c2)sc1C(=O)N[C@H]1CCCNC1 [AZD7762] (partner 0.2 µM)
Summary of the method: as §1

Cell Line | relative viability (AZD5582 + Bortezomib; first compound 0.001581 µM) | relative viability (AZD5582 + Bortezomib; first compound 0.005 µM) | relative viability (AZD5582 + Bortezomib; first compound 0.01581 µM) | relative viability (AZD5582 + Bortezomib; first compound 0.05 µM) | relative viability (AZD5582 + Vorinostat; first compound 0.001581 µM) | relative viability (AZD5582 + Vorinostat; first compound 0.005 µM) | relative viability (AZD5582 + Vorinostat; first compound 0.01581 µM) | relative viability (AZD5582 + Vorinostat; first compound 0.05 µM) | relative viability ([1]; first compound 0.2 µM) | relative viability ([1]; first compound 0.6325 µM) | relative viability ([1]; first compound 2 µM) | relative viability ([1]; first compound 6.325 µM) | relative viability ([1]; first compound 20 µM) | relative viability (Temozolomide + AZD7762; first compound 0.2 µM) | relative viability (Temozolomide + AZD7762; first compound 0.6325 µM) | relative viability (Temozolomide + AZD7762; first compound 2 µM) | relative viability (Temozolomide + AZD7762; first compound 6.325 µM) | relative viability (Temozolomide + AZD7762; first compound 20 µM)
NCI-H1437 | 0.389 | 0.549 | 0.445 | 0.446 | 0.711 | 0.751 | 0.838 | 0.743 | 0.346 | 0.348 | 0.378 | 0.289 | 0.34 | 1.09 | 1.12 | 1.14 | 1.12 | 1.14
NCI-H1651 | 0.831 | 0.907 | 0.87 | 0.987 | 0.525 | 0.557 | 0.56 | 0.584 | 0.388 | 0.332 | 0.353 | 0.268 | 0.351 | 0.392 | 0.403 | 0.478 | 0.465 | 0.419
NCI-H1666 | 0.717 | 0.805 | 0.714 | 0.73 | 0.848 | 0.891 | 1.05 | 0.958 | 0.575 | 0.584 | 0.585 | 0.526 | 0.594 | 0.795 | 0.923 | 0.858 | 0.7 | 0.657
NCI-H1734 | 0.959 | 0.963 | 0.966 | 1.14 | 0.754 | 0.85 | 0.889 | 0.877 | 0.474 | 0.454 | 0.437 | 0.383 | 0.342 | 0.642 | 0.623 | 0.646 | 0.488 | 0.559
NCI-H1755 | 0.925 | 1.02 | 0.936 | 1.02 | 0.775 | 0.863 | 0.688 | 0.88 | 0.68 | 0.598 | 0.621 | 0.547 | 0.532 | 0.487 | 0.396 | 0.485 | 0.385 | 0.638
NCI-H1915 | 0.938 | 0.991 | 0.92 | 0.855 | 0.428 | 0.439 | 0.462 | 0.477 | 0.393 | 0.385 | 0.35 | 0.268 | 0.259 | 0.757 | 0.652 | 0.584 | 0.281 | 0.27
NCI-H1975 | 0.327 | 0.458 | 0.373 | 0.414 | 0.699 | 0.872 | 0.687 | 0.885 | 0.444 | 0.423 | 0.438 | 0.417 | 0.423 | – | 0.778 | 0.85 | 0.679 | 0.78
NCI-H1993 | 1.06 | 1.38 | 1.15 | 1.1 | 0.725 | 0.888 | 0.795 | 1.03 | 0.563 | 0.493 | 0.469 | 0.464 | 0.613 | 0.678 | 0.764 | 1.03 | 0.692 | 0.71
